# Molecular target: T1, human GPR40 (Homo sapiens, UniProt O14842)
# T1 construct: expressed in transfected cells; host or cells: CHO-K1
# Assay: Induction of Ca2+ (calcium flux assay) using human GPR40 expression cell line
# Format: cell-based
# Details: read-out: EC0.5
# Protocol: Evaluation of the Test Compounds for Induction of Ca^2+ Using Human GPR40 Expression Cell Line
# The cell line expressing human GPR40 was generated by transfection of the GPR40 expression vector into CHO-K1 cell, and used in the following calcium flux assay.
# The cell line was cultured in cell-culture medium (F-12 (Invitrogen) supplemented with 10% (v/v) FBS (Fetal Bovine Serum; Invitrogen), 0.5 mg/ml Geneticin (Invitrogen) and 1% (v/v) Antibiotic-Antimycotic solution (Invitrogen)) under the condition of 5% CO2 and 37° C. For calcium flux assay, the cells were diluted with the cell-culture medium to a concentration of 5×10^5 cells/ml, and the diluted cell suspension was dispensed in amount of 100 μl/well to a 96-well transparent bottom black polystyrene cell culture plate (Corning) and then cultured for 24 hours. The following concentrations of test compounds were added to these cells, and then the changes in intracellular calcium concentration were measured by FlexStation II384 (Molecular Devices). The following solution was prepared before the measurement.
# First, a buffer solution for assay was prepared for use in the manufacture of fluorescent dye solution. This buffer solution was prepared by adding 1M HEPES solution (Invitrogen) to HBSS (Hanks' Balanced Salt Solution) (Invitrogen) and then adding 1M NaOH (Nacalai Tesque) to adjust pH to 7.4. Then the fluorescent dye solution was prepared according to the manufacturer's instruction attached to Calcium 5 Assay Kit (Molecular Devices), and the final DMSO concentration was adjusted to 2%.
# The fluorescent dye solution was added in an amount of 100 μl/well to supernatant of the cell culture plate cultured for 24 hours. The plate was cultured for 1 hour under the condition of 5% CO2 and 37° C. so that the fluorescent dye was inserted into the cell.
# Test compounds (i.e., the compounds prepared in the Examples) dissolved in dimethyl sulfoxide (DMSO ACROS) were diluted 200-fold in the buffer solution for assay to prepare compound solutions corresponding to the respective concentrations. […] 50 μl of the prepared sample solutions was added to each well of 96-well polypropylene plates (NUNC), and thereby a compound plate was prepared. Finally, the compound plate and the cell culture plate cultured for 1 hour with the fluorescent dye were placed in FlexStation II384.
# After the above pre-treatment, the change in the intracellular calcium concentration when each concentration of the test compound solutions was added at 50 μl was measured by FlexStation II^384.
# Then, the relative activity values depending on the concentration of the compound were plotted using Prism 4 software (GraphPad) to calculate the EC0.5 value.
# T1 sequence (O14842 whole entry): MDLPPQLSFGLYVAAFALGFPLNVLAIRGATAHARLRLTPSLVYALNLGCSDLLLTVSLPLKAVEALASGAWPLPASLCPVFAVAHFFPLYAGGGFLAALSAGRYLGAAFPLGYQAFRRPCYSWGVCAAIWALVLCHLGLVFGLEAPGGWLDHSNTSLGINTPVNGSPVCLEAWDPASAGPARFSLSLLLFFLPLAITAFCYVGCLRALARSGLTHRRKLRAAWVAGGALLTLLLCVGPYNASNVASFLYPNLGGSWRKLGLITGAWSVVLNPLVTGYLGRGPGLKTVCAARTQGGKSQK
row,Structure (SMILES),EC50 [nM]
1,"CC#C[C@@H](CC(=O)O)c1ccc(OCc2ccc3c(C)nn(C(C)C)c3c2)cc1 [Example 185, (S)-3-[4-(1-isopropyl-3-methyl-1H-indazol-6-ylmethoxy)-phenyl]-hex-4-ynoic acid]",1 to 50
2,"CC#C[C@@H](CC(=O)O)c1ccc(OCc2cccc3c(C(C)C)nn(C)c23)cc1 [Example 209, (S)-3-[4-(3-isopropyl-1-methyl-1H-indazol-7-ylmethoxy)-phenyl]-hex-4-ynoic acid]",1 to 50
3,"CC#C[C@@H](CC(=O)O)c1ccc(OCc2ccc3c(cnn3C(C)C)c2)cc1 [Example 116, (S)-3-[4-(1-isopropyl-1H-indazol-5-ylmethoxy)-phenyl]-hex-4-ynoic acid]",1 to 50
4,"CC(C)CCn1ncc2cc(COc3ccc4c(c3)OCCC4CC(=O)O)ccc21 (stereo not shown) [Example 137, {7-[1-(3-methyl-butyl)-1H-indazol-5-ylmethoxy]-chroman-4-yl}-acetic acid]",50 to 500
5,"CC#C[C@@H](CC(=O)O)c1ccc(OCc2ccc3cc(CCOC)n(Cc4ccccc4)c3c2)cc1 [Example 34, (S)-3-{4-[1-benzyl-2-(2-methoxy-ethyl)-1H-indol-6-ylmethoxy]-phenyl}-hex-4-ynoic acid]",40
6,"CC#C[C@@H](CC(=O)O)c1ccc(OCc2ccc3ccn(-c4ccc(F)cc4C)c3c2)cc1 [Example 26, (S)-3-{4-[1-(4-fluoro-2-methyl-phenyl)-1H-indol-6-ylmethoxy]-phenyl}-hex-4-ynoic acid]",20
7,"CCC(CC(=O)O)c1ccc(OCc2ccc3c(cnn3Cc3ccccc3)c2)cc1 (stereo not shown) [Example 159, 3-[4-(1-benzyl-1H-indazol-5-ylmethoxy)-phenyl]-pentanoic acid]",100
8,"CC#C[C@@H](CC(=O)O)c1ccc(OCc2cc(C)c3nn(CC(C)C)cc3c2)cc1 [Example 140, (S)-3-[4-(2-isobutyl-7-methyl-2H-indazol-5-ylmethoxy)-phenyl]-hex-4-ynoic acid]",4
9,"O=C(O)C[C@@H](c1ccc(OCc2cccc3c2cnn3Cc2ccccc2)cc1)c1ccon1 [Example 94, (S)-3-[4-(1-benzyl-1H-indazol-4-ylmethoxy)-phenyl]-3-isoxazol-3-yl-propanoic acid]",60
10,"CC#C[C@@H](CC(=O)O)c1ccc(OCc2ccc3c(c2)c(C)nn3CC(C)C)cc1 [Example 170, (S)-3-[4-(1-isobutyl-3-methyl-1H-indazol-5-ylmethoxy)-phenyl]-hex-4-ynoic acid]",1 to 50
11,"CC#C[C@@H](CC(=O)O)c1ccc(OCc2ccc3c(c2)nnn3Cc2ccccc2)cc1 [Example 124, (S)-3-[4-(1-benzyl-1H-benzotriazol-5-ylmethoxy)-phenyl]-hex-4-ynoic acid]",50
12,"CC#C[C@@H](CC(=O)O)c1ccc(OCc2ccc3cn(Cc4ccc(F)cc4)nc3c2)cc1 [Example 67, (S)-3-{4-[2-(4-fluoro-benzyl)-2H-indazol-6-ylmethoxy]-phenyl}-hex-4-ynoic acid]",70
13,"CC#C[C@@H](CC(=O)O)c1ccc(OCc2ccc3ccn(Cc4ccccc4C)c3c2C)cc1 [Example 36, (S)-3-{4-[7-methyl-1-(2-methyl-benzyl)-1H-indol-6-ylmethoxy]-phenyl}-hex-4-ynoic acid]",60
14,"CC#C[C@@H](CC(=O)O)c1ccc(OCc2ccnc3c2ccn3C(C)C)cc1 [Example 224, (S)-3-[4-(1-isopropyl-1H-pyrrolo[2,3-b]pyridin-4-ylmethoxy)-phenyl]-hex-4-ynoic acid]",27
15,"CC(C)n1ncc2ccc(COc3ccc4c(c3)OCC4CC(=O)O)cc21 (stereo not shown) [Example 100, [6-(1-isopropyl-1H-indazol-6-ylmethoxy)-2,3-dihydro-benzofuran-3-yl]-acetic acid]",600
16,"CC#C[C@@H](CC(=O)O)c1ccc(OCc2ccc3c(c2)c(CC(C)C)nn3C)cc1 [Example 186, (S)-3-[4-(3-isobutyl-1-methyl-1H-indazol-5-ylmethoxy)-phenyl]-hex-4-ynoic acid]",1 to 50
17,"CC#C[C@@H](CC(=O)O)c1ccc(OCc2cc(C)c3c(cnn3C(C)C)c2)cc1 [Example 168, (S)-3-[4-(1-isopropyl-7-methyl-1H-indazol-5-ylmethoxy)-phenyl]-hex-4-ynoic acid]",1 to 50

row,Structure (SMILES),EC50 [nM]
1,"O=C(O)CC1COc2cc(OCc3ccc4ccn(Cc5ccccc5)c4n3)ccc21 (stereo not shown) [Example 121, [6-(1-benzyl-1H-pyrrolo[2,3-b]pyridin-6-ylmethoxy)-2,3-dihydro-benzofuran-3-yl]-acetic acid]",300
2,"CC#C[C@@H](CC(=O)O)c1ccc(OCc2cccc3c(CC(C)C)nn(C)c23)cc1 [Example 207, (S)-3-[4-(3-isobutyl-1-methyl-1H-indazol-7-ylmethoxy)-phenyl]-hex-4-ynoic acid]",1 to 50
3,"CC#C[C@@H](CC(=O)O)c1ccc(OCc2ccc3ccn(Cc4cscn4)c3c2C)cc1 [Example 56, (S)-3-[4-(7-methyl-1-thiazol-4-ylmethyl-1H-indol-6-ylmethoxy]-phenyl}-hex-4-ynoic acid]",1 to 50
4,"CC#C[C@@H](CC(=O)O)c1ccc(OCc2ccc3c(C)nn(CC(C)C)c3c2C)cc1 [Example 212, (S)-3-[4-(1-isobutyl-3,7-dimethyl-1H-indazol-6-ylmethoxy)-phenyl]-hex-4-ynoic acid]",2
5,"CC#C[C@@H](CC(=O)O)c1ccc(OCc2ccc3cn(Cc4cccnc4)nc3c2)cc1 [Example 80, (S)-3-[4-(2-pyridin-3-ylmethyl-2H-indazol-6-ylmethoxy)-phenyl]-hex-4-ynoic acid]",≥ 500
6,"Cc1c(COc2ccc(CCC(=O)O)c(F)c2)ccc2ccn(Cc3ccccc3)c12 [Example 55, 3-[4-(1-benzyl-7-methyl-1H-indol-6-ylmethoxy)-2-fluoro-phenyl]-propanoic acid]",1 to 50
7,"CC#C[C@@H](CC(=O)O)c1ccc(OCc2cc3c(cnn3Cc3ccccc3)cc2F)cc1 [Example 122, (S)-3-[4-(1-benzyl-5-fluoro-1H-indazol-6-ylmethoxy)-phenyl]-hex-4-ynoic acid]",1 to 50
8,"CC#C[C@@H](CC(=O)O)c1ccc(OCc2ccc3cnn(CC4CCCC4)c3c2)cc1 [Example 173, (S)-3-[4-(1-cyclopentylmethyl-1H-indazol-6-ylmethoxy)-phenyl]-hex-4-ynoic acid]",1 to 50
9,"O=C(O)CC1CCCc2cc(OCc3ccc4cnn(Cc5ccccc5)c4c3)ccc21 (stereo not shown) [Example 110, [6-(1-benzyl-1H-indazol-6-ylmethoxy)-1,2,3,4-tetrahydro-naphthalen-1-yl]-acetic acid]",200
10,CC(C)n1ccc2ccc(CNc3ccc(CCC(=O)O)cc3)cc21 [Example 1],100
11,"CC#C[C@@H](CC(=O)O)c1ccc(OCc2cccc3c2c(Cl)nn3CC(C)C)cc1 [Example 192, (S)-3-[4-(3-chloro-1-isobutyl-1H-indazol-4-ylmethoxy)-phenyl]-hex-4-ynoic acid]",30
12,"CC#C[C@@H](CC(=O)O)c1ccc(OCc2ccc3cn(Cc4ncccn4)nc3c2)cc1 [Example 69, (S)-3-[4-(2-pyrimidin-2-ylmethyl-2H-indazol-6-ylmethoxy]-phenyl}-hex-4-ynoic acid]",≥ 500
13,"CC#C[C@@H](CC(=O)O)c1ccc(OCc2ccc3c(CN4CCC(F)(F)C4)nn(CC(C)C)c3c2C)cc1 [Example 230, (S)-3-{4-[3-(3,3-difluoro-pyrrolidin-1-ylmethyl)-1-isobutyl-7-methyl-1H-indazol-6-ylmethoxy]-phenyl}-hex-4-ynoic acid]",1 to 50
14,"CC#C[C@@H](CC(=O)O)c1ccc(OCc2ccc3ccn(Cc4ccc(CS(C)(=O)=O)cc4)c3c2C)cc1 [Example 45, (S)-3-{4-[1-(4-methanesulfonylmethyl-benzyl)-7-methyl-1H-indol-6-ylmethoxy]-phenyl}-hex-4-ynoic acid]",1 to 50
15,"CC#C[C@@H](CC(=O)O)c1ccc(OCc2ccc(C)c3c2cnn3CC(C)C)cc1 [Example 208, (S)-3-[4-(1-isobutyl-7-methyl-1H-indazol-4-ylmethoxy)-phenyl]-hex-4-ynoic acid]",5
16,"CC#C[C@@H](CC(=O)O)c1ccc(OCc2ccc3ccn(CC(C)C)c3n2)cc1 [Example 115, (S)-3-[4-(1-isobutyl-1H-pyrrolo[2,3-b]pyridin-6-ylmethoxy)-phenyl]-hex-4-ynoic acid]",1 to 50
17,"CC(C)n1ncc2ccc(COc3ccc([C@H](CC(=O)O)c4ccon4)cc3)cc21 [Example 96, (S)-3-[4-(1-isopropyl-1H-indazol-6-ylmethoxy)-phenyl]-3-isoxazol-3-yl-propanoic acid]",30
